Measured values published in ChEMBL document CHEMBL1201862, “PubChem BioAssay data set” (2004).
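Cultured in 96-well plates, cells were exposed to test compound for 48 hours across five concentrations. Here, GI50 denotes the concentration required for 50% inhibition of growth.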 Active and inactive are the calls of the source. No stated cut-off is given here; in the data, active = GI50 up to about 1.1 µM and inactive = higher.

Key:
Assay in all cases: NCI-60 cell line screen, 48 h
IGROV-1 = system: IGROV-1
NCI-H23 = system: NCI-H23
EKVX = system: EKVX
OVCAR-5 = system: OVCAR-5
NCI-H226 = system: NCI-H226
TK-10 = system: TK-10
SK-MEL-2 = system: SK-MEL-2
SW-620 = system: SW-620
SR = system: SR
OVCAR-8 = system: OVCAR-8
MOLT-4 = system: MOLT-4
T47D = system: T47D
HOP-92 = system: HOP-92
NCI/ADR-RES = system: NCI/ADR-RES
RPMI-8226 = system: RPMI-8226
PC-3 = system: PC-3
UACC-257 = system: UACC-257
786-0 = system: 786-0
CAKI-1 = system: CAKI-1
OVCAR-4 = system: OVCAR-4
UO-31 = system: UO-31
COLO 205 = system: COLO 205
BT-549 = system: BT-549
LOX IMVI = system: LOX IMVI
CCRF-CEM = system: CCRF-CEM
RXF 393 = system: RXF 393
Malme-3M = system: Malme-3M
SK-OV-3 = system: SK-OV-3
SK-MEL-28 = system: SK-MEL-28
HL-60 = system: HL-60
HCT-15 = system: HCT-15
KM12 = system: KM12
A549 = system: A549
SN12C = system: SN12C
SNB-75 = system: SNB-75
MDA-N = system: MDA-N
U-251 = system: U-251
A498 = system: A498
ACHN = system: ACHN
Hs-578T = system: Hs-578T
DU-145 = system: DU-145
OVCAR-3 = system: OVCAR-3
MDA-MB-435 = system: MDA-MB-435
MDA-MB-231 = system: MDA-MB-231
MCF7 = system: MCF7
M14 = system: M14
HCT-116 = system: HCT-116
HT-29 = system: HT-29
K562 = system: K562
SNB-19 = system: SNB-19
HOP-62 = system: HOP-62
NCI-H522 = system: NCI-H522
SF-295 = system: SF-295
SK-MEL-5 = system: SK-MEL-5
SF-268 = system: SF-268
HCC 2998 = system: HCC 2998
UACC-62 = system: UACC-62
NCI-H460 = system: NCI-H460
SF-539 = system: SF-539

## COc1ccccc1[C@@H]1CCC2CC[C@@H](c3ccccc3OC)[N+]21Cc1ccccc1 (stereo partly drawn)
IGROV-1
  GI50: 1.34 µM (inactive)
NCI-H23
  GI50: 0.948 µM (active)
EKVX
  GI50: 0.223 µM (active)
OVCAR-5
  GI50: 2.88 µM (inactive)
NCI-H226
  GI50: 1.39 µM (inactive)
TK-10
  GI50: 5.74 µM (inactive)
SK-MEL-2
  GI50: 1.51 µM (inactive)
SW-620
  GI50: 2.6 µM (inactive)
SR
  GI50: 1.03 µM (active)
OVCAR-8
  GI50: 1.27 µM (inactive)
MOLT-4
  GI50: 1.83 µM (inactive)
T47D
  GI50: 0.349 µM (active)
HOP-92
  GI50: 0.968 µM (active)
NCI/ADR-RES
  GI50: 13 µM (inactive)
RPMI-8226
  GI50: 0.211 µM (active)
PC-3
  GI50: 1.25 µM (inactive)
UACC-257
  GI50: 0.521 µM (active)
786-0
  GI50: 1.94 µM (inactive)
CAKI-1
  GI50: 3.87 µM (inactive)
OVCAR-4
  GI50: 1.64 µM (inactive)
UO-31
  GI50: 2.96 µM (inactive)
COLO 205
  GI50: 0.44 µM (active)
BT-549
  GI50: 0.893 µM (active)
LOX IMVI
  GI50: 1.69 µM (inactive)
CCRF-CEM
  GI50: 1.73 µM (inactive)
RXF 393
  GI50: 2 µM (inactive)
Malme-3M
  GI50: 2.3 µM (inactive)
SK-OV-3
  GI50: 2.84 µM (inactive)
SK-MEL-28
  GI50: 3.56 µM (inactive)
HL-60
  GI50: 0.478 µM (active)
HCT-15
  GI50: 3.76 µM
KM12
  GI50: 0.522 µM (active)
A549
  GI50: 1.99 µM (inactive)
SN12C
  GI50: 2.54 µM (inactive)
SNB-75
  GI50: 2.15 µM (inactive)
MDA-N
  GI50: 0.632 µM (active)
U-251
  GI50: 0.385 µM (active)
A498
  GI50: 2.25 µM (inactive)
ACHN
  GI50: 3.3 µM (inactive)
Hs-578T
  GI50: 4.49 µM (inactive)
DU-145
  GI50: 2.28 µM (inactive)
OVCAR-3
  GI50: 0.887 µM (active)
MDA-MB-435
  GI50: 0.585 µM (active)
MDA-MB-231
  GI50: 1.95 µM (inactive)
MCF7
  GI50: 0.581 µM (active)
M14
  GI50: 2.24 µM (inactive)
HCT-116
  GI50: 1.6 µM (inactive)
HT-29
  GI50: 0.847 µM (active)
K562
  GI50: 0.344 µM (active)
SNB-19
  GI50: 0.982 µM (active)
HOP-62
  GI50: 2.33 µM (inactive)
NCI-H522
  GI50: 1.33 µM (inactive)
SF-295
  GI50: 2.33 µM (inactive)
SK-MEL-5
  GI50: 0.36 µM (active)
SF-268
  GI50: 3.64 µM (inactive)

## N#CCN1c2ccccc2CCC1Cl (stereo not drawn)
IGROV-1
  GI50: > 10 µM (inactive)
NCI-H23
  GI50: > 10 µM (inactive)
EKVX
  GI50: > 10 µM (inactive)
OVCAR-5
  GI50: > 10 µM (inactive)
NCI-H226
  GI50: > 10 µM (inactive)
TK-10
  GI50: > 10 µM (inactive)
SW-620
  GI50: > 10 µM (inactive)
SR
  GI50: > 10 µM (inactive)
OVCAR-8
  GI50: > 10 µM (inactive)
MOLT-4
  GI50: > 10 µM (inactive)
T47D
  GI50: > 10 µM (inactive)
HOP-92
  GI50: > 10 µM (inactive)
NCI/ADR-RES
  GI50: > 10 µM (inactive)
RPMI-8226
  GI50: > 10 µM (inactive)
PC-3
  GI50: > 10 µM (inactive)
UACC-257
  GI50: > 10 µM (inactive)
786-0
  GI50: > 10 µM (inactive)
HCC 2998
  GI50: > 10 µM (inactive)
CAKI-1
  GI50: > 10 µM (inactive)
OVCAR-4
  GI50: > 10 µM (inactive)
UO-31
  GI50: > 10 µM (inactive)
COLO 205
  GI50: > 10 µM (inactive)
BT-549
  GI50: > 10 µM (inactive)
LOX IMVI
  GI50: > 10 µM (inactive)
CCRF-CEM
  GI50: > 10 µM (inactive)
Malme-3M
  GI50: > 10 µM (inactive)
SK-OV-3
  GI50: > 10 µM (inactive)
SK-MEL-28
  GI50: > 10 µM (inactive)
HCT-15
  GI50: > 10 µM
UACC-62
  GI50: > 10 µM (inactive)
KM12
  GI50: > 10 µM (inactive)
A549
  GI50: > 10 µM (inactive)
SN12C
  GI50: > 10 µM (inactive)
MDA-N
  GI50: > 10 µM (inactive)
NCI-H460
  GI50: > 10 µM (inactive)
U-251
  GI50: > 10 µM (inactive)
A498
  GI50: > 10 µM (inactive)
ACHN
  GI50: > 10 µM (inactive)
Hs-578T
  GI50: > 10 µM (inactive)
DU-145
  GI50: > 10 µM (inactive)
OVCAR-3
  GI50: > 10 µM (inactive)
MDA-MB-435
  GI50: > 10 µM (inactive)
SF-539
  GI50: > 10 µM (inactive)
MDA-MB-231
  GI50: > 10 µM (inactive)
MCF7
  GI50: > 10 µM (inactive)
M14
  GI50: > 10 µM (inactive)
HCT-116
  GI50: > 10 µM (inactive)
HT-29
  GI50: > 10 µM (inactive)
K562
  GI50: > 10 µM (inactive)
SNB-19
  GI50: > 10 µM (inactive)
HOP-62
  GI50: > 10 µM (inactive)
NCI-H522
  GI50: > 10 µM (inactive)
SF-295
  GI50: > 10 µM (inactive)
SK-MEL-5
  GI50: > 10 µM (inactive)
SF-268
  GI50: > 10 µM (inactive)

## Cn1c(=O)c(-c2ccccc2)c(N=[N+]=[N-])c2ccccc21
IGROV-1
  GI50: > 100 µM (inactive)
NCI-H23
  GI50: 38.7 µM (inactive)
OVCAR-5
  GI50: > 100 µM (inactive)
NCI-H226
  GI50: 67 µM (inactive)
TK-10
  GI50: > 100 µM (inactive)
SW-620
  GI50: 48.3 µM (inactive)
SR
  GI50: 25.3 µM (inactive)
OVCAR-8
  GI50: 49.3 µM (inactive)
MOLT-4
  GI50: 20.9 µM (inactive)
T47D
  GI50: 19.8 µM (inactive)
HOP-92
  GI50: 17.9 µM (inactive)
NCI/ADR-RES
  GI50: 28.4 µM (inactive)
PC-3
  GI50: 22.3 µM (inactive)
UACC-257
  GI50: > 100 µM (inactive)
HCC 2998
  GI50: 22.4 µM (inactive)
CAKI-1
  GI50: 29.4 µM (inactive)
OVCAR-4
  GI50: 56.5 µM (inactive)
UO-31
  GI50: 46.8 µM (inactive)
COLO 205
  GI50: 44 µM (inactive)
BT-549
  GI50: 44.2 µM (inactive)
CCRF-CEM
  GI50: 30.8 µM (inactive)
RXF 393
  GI50: 80.2 µM (inactive)
Malme-3M
  GI50: 30.9 µM (inactive)
SK-OV-3
  GI50: > 100 µM (inactive)
SK-MEL-28
  GI50: 66.4 µM (inactive)
HCT-15
  GI50: 39.4 µM
UACC-62
  GI50: 42.3 µM (inactive)
KM12
  GI50: 37.8 µM (inactive)
A549
  GI50: 67.8 µM (inactive)
SN12C
  GI50: 95.9 µM (inactive)
SNB-75
  GI50: 4.46 µM (inactive)
MDA-N
  GI50: 72.8 µM (inactive)
NCI-H460
  GI50: 39.4 µM (inactive)
U-251
  GI50: 34.8 µM (inactive)
A498
  GI50: 42.6 µM (inactive)
ACHN
  GI50: 30.8 µM (inactive)
Hs-578T
  GI50: 37.7 µM (inactive)
DU-145
  GI50: > 100 µM (inactive)
OVCAR-3
  GI50: 44.2 µM (inactive)
MDA-MB-435
  GI50: 45.4 µM (inactive)
SF-539
  GI50: 54 µM (inactive)
MDA-MB-231
  GI50: 49.5 µM (inactive)
MCF7
  GI50: 54.3 µM (inactive)
M14
  GI50: 63.2 µM (inactive)
HCT-116
  GI50: 69.5 µM (inactive)
HT-29
  GI50: 23.5 µM (inactive)
K562
  GI50: 34.8 µM (inactive)
SNB-19
  GI50: > 100 µM (inactive)
HOP-62
  GI50: 45 µM (inactive)
NCI-H522
  GI50: 26 µM (inactive)
SF-295
  GI50: 47.9 µM (inactive)
SK-MEL-5
  GI50: 53.2 µM (inactive)
SF-268
  GI50: 39.5 µM (inactive)
